From US7402575B2, “Methods of treating inflammation” (priority 2003, dated 2008)
“Also recorded” adds a separate entry of the source.

Key:
Assay type in all cases: cell-based, dog
lysozyme c (Lzm-S) [1] = molecular target: T1, lysozyme c (Lzm-S) (Canis lupus familiaris, UniProt P81709); test: Inhibition of Lzm-S's myocardial depressant activity (isometric tension) in right ventricular trabecular preparation; settings: Lzm-S 10^−7M first, then inhibitor 10^−3M at 15 min intervals (Example 4)
T1 construct: Lzm-S was purified in a manner described by Grobler et al (14); from tissue
T1 sequence (P81709 1-130): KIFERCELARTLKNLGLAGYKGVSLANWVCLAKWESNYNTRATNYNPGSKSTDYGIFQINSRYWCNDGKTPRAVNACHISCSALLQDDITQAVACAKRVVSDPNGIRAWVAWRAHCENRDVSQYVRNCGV

lysozyme c (Lzm-S) [2] = molecular target: T1, lysozyme c (Lzm-S); test: as above; settings: for Attenuation of the reduction in isometric tension, inhibitor added after Lzm-S: Lzm-S 10^−7M added before the inhibitor; for Isometric tension following pre-treatment with sugar: Lzm-S 10^−7M, sugar 10^−3M added before Lzm-S; for Inhibition of Lzm-S's depressant effect on isometric tension: inhibitor 10^−3M added before Lzm-S, paced 0.5 Hz
Method: In subsequent experiments, the objective was to determine whether pretreatment of Lzm-S with the proteolytic enzyme proteinase-K reduced the extent to which myocardial depression developed in the in vitro preparation (7). Proteinase-K (attached to beaded agarose; Sigma Chemical, St Louis, Mo.) was added to the pure Lzm-S preparation. The effects of proteinase-K treated and nontreated Lzm-S on isometric tension were compared between the samples. Since proteinase-K is a non-specific proteolytic enzyme, a specific competitive inhibitor of lysozyme, TAC (chitotriose) was subsequently examined to determine whether it prevented the depression in isometric tension observed in the in vitro preparation (16,17).
In one set of experiments, it was determined whether TAC prevented the reduction in tension observed with Lzm-S. A dose of 10^−3M TAC (based on preliminary experiments) was added to the organ bath before the addition of Lzm-S. Lzm-S was then added to bring the final concentrations to 10^−10M, 10^−9M, 10^−8M, and 10^−7M in sequential steps. In a related set of experiments, the effect of TAC was studied under a similar protocol in which the ventricular trabecular preparation was paced at 1 Hz instead of 0.5 Hz. The objective was to determine whether the higher frequency altered the inhibitory response of TAC. In a third set of experiments, the sequence of adding TAC and Lzm-S was reversed. Lzm-S (10^−7M) was initially added to the preparation, after which TAC at bath concentrations of 10^−6M, 10^−5M, 10^−4M, 10^−3M were sequentially added. The objective was to determine whether TAC could attenuate the effect of Lzm-S on reducing the isometric response after an initial depression in isometric tension had already been attained.
The right ventricular (RV) preparation used in this study has also been described (49,6). Briefly, mongrel dogs (3 to 10 kg) were anesthetized with pentobarbital. The hearts were removed, flushed with 50 ml of Krebs-Henseleit solution (KH), and placed in ice-cold KH bubbled with a mixture of 95% O2 and 5% CO2. Three to four thin trabeculae (<1 mm diameter) were obtained from the right ventricle and were tied at each end with 6-O silk thread. Each thin muscle was suspended in a vertical constant temperature bath (5 ml) that contained KH (in mM: NaCl, 118; KCl, 4.7; CaCl2 2.5; MgSO4, 1.2; KH2PO4, 1.4; NaHCO3, 25; and dextrose, 11). The muscle was stimulated electrically via punctate platinum bipolar electrodes with rectangular pulses (1 ms duration) at an intensity of 50% above threshold delivered at intervals of 2,000 ms. The trabeculae were stretched to optimal length.
Inhibitory activities of N-acetylglucosamine (NAG), N,N′ diacetylglucosamine (NAG-NAG: N,N′ diacetylchitobiose), and N,N′,N″,N′″ tetraacetylglucosamine (NAG-NAG-NAG-NAG: N,N′,N″,N′″-tetraacetylchitotetraose) were examined (Sigma Corp Canada, Oakville Ontario). These are structurally similar to TAC, but have a different number of NAG units (17). Two somewhat related sugars were also examined to see if there was potential for blocking the activity of lysozyme. These included D-cellotriose and N-aceytllactosamine. D-cellotriose includes three glucose residues linked by beta (1-4) glycosidic linkages, while N acetyllactosamine includes N-acetylglucosamine and galactose residues linked by beta (1-4) glycosidic linkages (12).
After baseline tension was determined, either the sugar or placebo was placed into respective organ baths. The concentration of the sugar used was 10^−3M based on the inventors' previous experiments with TAC 49), while the concentrations of lysozyme were 10^−9, 10^−8, and 10^−7M, respectively. Measurements were obtained at 5 minute intervals. The changes in isometric tension measured from baseline were compared between the treated and placebo baths. […]

[3] = tested on: right ventricular trabecular preparation; test: Effect of the substance itself on isometric tension in right ventricular trabecular preparation
Method: Aliquots of the 10-30 KD plasma fraction (0.05 to 1 ml) were then added to a right ventricular (RV) trabecular preparation to test for the presence of FCS activity. The RV preparation has previously been described (6,7). Briefly, mongrel dogs (3 to 10 kg) were anesthetized with pentobarbital, and their hearts were removed. Three to four thin trabeculae (<1 mm diameter) were obtained from the right ventricle and were suspended in a vertical constant temperature bath (5 ml) that contained Krebs Henseleit (KH) solution. The muscle was stimulated electrically at 0.5 Hz. Aliquots of plasma fractions (from 0.05 to 1 ml) were added to respective organ baths at 5 minute intervals. The changes observed in the pre and septic plasma fractions were expressed relative to tensions found at baseline (i.e. prior to the addition of the sample). An increase in the depressant activity in the septic plasma fraction relative to that found in the presepsis sample was indicative of an increase in FCS.
The effect of purified Lzm-S on myocardial depression was then studied in the ventricular trabecular preparation. In initial experiments, the objective was to compare Lzm-S prepared from septic and nonseptic spleens to see if there was any difference between the two preparations. Although no differences were apparent by SDS-PAGE gel, different isoforms of the enzyme could have developed in sepsis thereby increasing its potential to cause myocardial depression. Aliquots of the septic and nonseptic preparations were added (at 5 minute intervals) to respective organ baths, and the changes in isometric tension were then compared between Lzm-S obtained from spleens of septic and nonseptic animals.
The right ventricular (RV) preparation used in this study has also been described (49,6). Briefly, mongrel dogs (3 to 10 kg) were anesthetized with pentobarbital. The hearts were removed, flushed with 50 ml of Krebs-Henseleit solution (KH), and placed in ice-cold KH bubbled with a mixture of 95% O2 and 5% CO2. […]
After baseline tension was determined, either the lectin or placebo was placed into respective organ baths. […]

SMILES	Isometric tension, inhibitor added after myocardial depression had already been produced by lysozyme (lysozyme c (Lzm-S) [1])	Attenuation of the reduction in isometric tension, inhibitor added after Lzm-S (lysozyme c (Lzm-S) [2])	Isometric tension following pre-treatment with sugar (lysozyme c (Lzm-S) [2])	Inhibition of Lzm-S's depressant effect on isometric tension (lysozyme c (Lzm-S) [2]; listed as N,N′ diacetylchitobiose)	Inhibition of Lzm-S's depressant effect on isometric tension (lysozyme c (Lzm-S) [2]; listed as diacetylchitobiose)	Effect of the substance by itself on isometric tension [3]	Attenuation of Lzm-S's depressant activity at higher pacing rate (lysozyme c (Lzm-S) [2]; TAC 10^−3M before Lzm-S, paced 1 Hz)	Inhibition of Lzm-S's depressant effect on isometric tension (lysozyme c (Lzm-S) [2])
CC(=O)N[C@H]1[C@H](O[C@H]2[C@H](O)[C@@H](NC(C)=O)C(O)O[C@@H]2CO)O[C@H](CO)[C@@H](O)[C@@H]1O (stereo partly drawn) [chitobiose, N,N′ diacetylglucosamine]	65 % of baseline	attenuated the decrease in isometric tension as compared to when no intervention was instituted	approximately 90 % of baseline	completely blocked lysozyme's depressant activity	inhibited the depressant effect of Lzm-S	modest depressant effect		
CC(=O)N[C@H]1[C@H](O[C@H]2[C@H](O)[C@@H](NC(C)=O)C(O)O[C@@H]2CO)O[C@H](CO)[C@@H](O[C@@H]2O[C@H](CO)[C@@H](O)[C@H](O)[C@H]2NC(C)=O)[C@@H]1O (stereo partly drawn) [TAC, N,N′,N″ triacetylglucosamine]	55 % of baseline	treatment attenuated the reduction in isometric tension; also recorded: attenuated the decrease in isometric tension as compared to when no intervention was instituted	approximately 77 % of baseline			no effect on isometric tension; also recorded: modest depressant effect	still observed at this higher heart rate	significantly less than that found in the nontreated group
